From US20020076412A1, “METHODS FOR MODULATING THE IMMUNE SYSTEM” (priority 1987, published 2002)
Where “and” joins values, the source holds several entries; their conditions need not be identical. Equal values may be shown once. Entries after “also recorded” stand apart in the source; their conditions may differ.

Key:
EAE (RAT) [1] = assay: Ability of peptide mixed in CFA to cause EAE; format: in vivo; settings: rats with EAE / rats immunized with the peptide alone in CFA
Experimental: (§1) The peptides were tested for their ability to cause EAE when mixed in CFA. […] It was seen that Ala4, Ala6, Ala7, and Ala8 are poor binders to I-E, implying that these residues 4F,6N,7I, and 8V are critical in MHC binding. […] Despite their inability to bind well to I-E, peptides ala6 and ala8 block the development of EAE when mixed with native peptide in a 5:1 molar ratio with CFA (0/6 sick with native plus ala6, 2/6 with native plus ala8, compared to 11/12 with native peptide alone). These competitor peptides Ala6 and Ala8, though poor I-E binders can apparently compete with native peptide and antagonize the T-cell receptor.

87-99 T-cell line [2] = assay: Proliferation of encephalitogenic T-cell line raised against native peptide (87-99); format: cell-based, rat; settings: stimulation of T-cell line raised against native 87-99, grades negative to 4+
Experimental: As noted above, candidate peptide analogues are first tested for their property of causing or inhibiting proliferation of T-cell lines. In the proliferation assay, MBP reactive T-cell lines may be used as target cells. T-cell lines are established from lymph nodes taken from rats injected with MBP. Lymph node cells are isolated and cultured for 5 to 8 days with MBP and IL-2 as a source of T-cell growth factors. Viable cells are recovered and a second round of stimulation is performed with MBP and irradiated splenocytes as a source of growth factors. After 5 to 6 passages in this manner, the proliferative potential of the cell lines are determined. MBP-reactive lines are used in the proliferation assay. In this assay, T-cell lines are cultured for three days with various concentrations of peptide analogues and irradiated, autologous splenocytes. After three days, 0.5-1.0 μCi of [^3H]-thymidine is added for 12-16 hours. Cultures are harvested and incorporated counts determined. Mean CPM and standard error of the mean are calculated from triplicate cultures.
Development of MBP-specific T-cell lines in the rat: T-cell lines are selected from LN or SC (spinal cords) of rats immunized with guinea pig myelin basic protein or with MBP peptide (200 μg) in CFA. Supernatants from ConA-stimulated Lewis rat splenocytes are used as the source of IL-2 to expand Ag-stimulated T-cells.
(§2) Proliferation Assay: Proliferative responses were determined as described previously (Zamvil, et al., Nature 317:355, 1985). 1×10^4 T-cells were cultured with 5×10^5 X-irradiated (3,000 rad) PL/J splenic APC in 0.2 ml of culture media in 96 well flat-bottomed microtiter plates (Falcon, 3072). Peptides were added to culture giving the final concentrations indicated. At 48 hours incubation, each well was pulsed with 1 μCi ^3H-thymidine and harvested 16 hours later. The mean c.p.m. thymidine incorporation was calculated for triplicate cultures. Standard deviations from replicate cultures were within 10% mean value. Proliferation assays were performed in 96-well microtiter plates. Briefly, 2×10^4 T-cells and 10^6 irradiated thymocytes/well were incubated with stimulation medium only, Con A, or antigen. The cultures were harvested onto glass fiber filters and TdR uptake was assessed by liquid scintillation. Mean cpm were calculated from triplicate wells. In some experiments, competitor peptides, or anti I-A (OX-6) or anti-I-E antibodies (OX-17) were used to evaluate which MHC molecules were used to restrict the T-cell response, or to determine whether peptides could antagonize stimulation by the native peptide.

I-E = assay: MHC I-E binding of substituted MBP 87-99 peptides; parameters: species or system rat; settings: for IC50: read-out: (M*C) IC50 I-E Binding
Description: A set of substituted peptides based on the sequence VHFFKNIVTPRT (Seq. ID No. 39), which is identical in rats, mice and human myelin basic protein (MBP), and corresponds to the I-E restricted epitope MBP 87-99 in the rat was produced. The peptides are shown in Table 1 (Seq. ID Nos. 39 to 52 respectively) MHC binding was measure say described in Smilek et al, 1991, Gautam et al 1992a&b.

EAE = assay: Competition with Ala6 and Ala5 for prevention of EAE with MBP (Table 3); format: in vivo, mice
Experimental: Incidence of EAE was expressed as number of mice with clinical EAE/number of mice immunized. For the induction of EAE, MBP peptide was dissolved in phosphate buffered saline (PBS) and emulsified with complete Freund's adjuvant (CFA) in a 1:1 mixture of PBS and CFA. Mice were injected with 0.2 ml emulsion at the base of the tail. On the same day and 48 h later, pertussis toxin (List Chemicals, Campbell, Calif.) was injected intravenously. Mice were examined daily for signs of EAE. For prevention of EAE, animals were immunized with MBP (0.2 mg), or in a mixture with the competitor peptide (1 mg).

87-99 T-cell line [3] = assay: Competition assay for T-cell proliferation with native peptide; format: cell-based, Lewis rat; settings: blocking of proliferation of 87-99 T-cell line when given with native peptide in vitro
Experimental: The second assay is a competition assay for T-cell proliferation. In this assay, antigen presenting spleen cells are first irradiated and then incubated with native MBP peptide for 2-4 hours. These cells are then washed and further cultured with T-cells reactive to MBP. Various concentrations of candidate peptide analogues are included in cultures for an additional 3 days. Following this incubation period, each culture is pulsed with 1 μCi of [^3H]-thymidine for an additional 12-18 hours. Cultures are then harvested on fiberglass filters and counted as above. Mean CPM and standard error of the mean are calculated from data determined in triplicate cultures. Peptide analogues which inhibit proliferation to approximately 25% at a concentration of 50 μM or greater are suitable for further screening.
as §2, §1

EAE (RAT) [4] = assay: Prevention of EAE, competitor mixed with native peptide 5:1 in CFA; format: in vivo; settings: sick/total; competitor plus native peptide 5:1 molar ratio in CFA; native line = native peptide alone
Experimental: as §1

[5] = native MBP peptide 0.2 mg mixed with competitor peptide 1 mg
[6] = peptide alone 0.2 mg in CFA, number with clinical EAE/number immunized

IC50 (I-E) [µM] | Structure (SMILES) | EAE (RAT) (EAE (RAT) [1]) | Prolif. (87-99 T-cell line [2]; no key printed) | also measured
– | CC[C@H](C)[C@H](NC(=O)[C@H](CC(N)=O)NC(=O)[C@H](CCCCN)NC(=O)[C@H](Cc1ccccc1)NC(=O)[C@H](Cc1ccccc1)NC(=O)[C@H](C)NC(=O)[C@@H](N)C(C)C)C(=O)N[C@H](C(=O)N[C@H](C(=O)N1CCC[C@H]1C(=O)N[C@@H](CCCNC(=N)N)C(=O)N[C@H](C(=O)N1CCC[C@H]1C(=O)O)[C@@H](C)O)[C@@H](C)O)C(C)C [Ala 2] | 6/6 | – | –
– | CC[C@H](C)[C@H](NC(=O)[C@H](CC(N)=O)NC(=O)[C@H](CCCCN)NC(=O)[C@H](Cc1ccccc1)NC(=O)[C@H](C)NC(=O)[C@H](Cc1c[nH]cn1)NC(=O)[C@@H](N)C(C)C)C(=O)N[C@H](C(=O)N[C@H](C(=O)N1CCC[C@H]1C(=O)N[C@@H](CCCNC(=N)N)C(=O)N[C@H](C(=O)N1CCC[C@H]1C(=O)O)[C@@H](C)O)[C@@H](C)O)C(C)C [Ala 3] | 6/6 | – | –
– | CC[C@H](C)[C@H](NC(=O)[C@H](CC(N)=O)NC(=O)[C@H](CCCCN)NC(=O)[C@H](Cc1ccccc1)NC(=O)[C@H](Cc1ccccc1)NC(=O)[C@H](Cc1c[nH]cn1)NC(=O)[C@@H](N)C(C)C)C(=O)N[C@H](C(=O)N[C@H](C(=O)N[C@@H](C)C(=O)N[C@@H](CCCNC(=N)N)C(=O)N[C@H](C(=O)N1CCC[C@H]1C(=O)O)[C@@H](C)O)[C@@H](C)O)C(C)C [Ala 10] | incapable of causing EAE and nonencephalitogenic and 0/6 | – | –
20 | CC[C@H](C)[C@H](NC(=O)[C@H](CC(N)=O)NC(=O)[C@H](CCCCN)NC(=O)[C@H](Cc1ccccc1)NC(=O)[C@H](Cc1ccccc1)NC(=O)[C@H](Cc1c[nH]cn1)NC(=O)[C@@H](N)C(C)C)C(=O)N[C@H](C(=O)N[C@H](C(=O)N1CCC[C@H]1C(=O)N[C@@H](C)C(=O)N[C@H](C(=O)N1CCC[C@H]1C(=O)O)[C@@H](C)O)[C@@H](C)O)C(C)C [Ala 11] | 4/6 | negative | –
10 | CC[C@H](C)[C@H](NC(=O)[C@H](CC(N)=O)NC(=O)[C@H](CCCCN)NC(=O)[C@H](Cc1ccccc1)NC(=O)[C@H](Cc1ccccc1)NC(=O)[C@H](Cc1c[nH]cn1)NC(=O)[C@@H](N)C(C)C)C(=O)N[C@H](C(=O)N[C@H](C(=O)N1CCC[C@H]1C(=O)N[C@@H](CCCNC(=N)N)C(=O)N[C@H](C(=O)N[C@@H](C)C(=O)O)[C@@H](C)O)[C@@H](C)O)C(C)C [Ala 13] | 3/6 | – | –
– | CC[C@H](C)[C@H](NC(=O)[C@H](CC(N)=O)NC(=O)[C@H](CCCCN)NC(=O)[C@H](Cc1ccccc1)NC(=O)[C@H](Cc1ccccc1)NC(=O)[C@H](Cc1c[nH]cn1)NC(=O)[C@@H](N)C(C)C)C(=O)N[C@H](C(=O)N[C@H](C(=O)N1CCC[C@H]1C(=O)N[C@@H](CCCNC(=N)N)C(=O)N[C@@H](C)C(=O)N1CCC[C@H]1C(=O)O)[C@@H](C)O)C(C)C [Ala 12] | 6/6 | – | –
– | CC[C@H](C)[C@H](NC(=O)[C@H](CC(N)=O)NC(=O)[C@H](CCCCN)NC(=O)[C@H](Cc1ccccc1)NC(=O)[C@H](Cc1ccccc1)NC(=O)[C@H](Cc1c[nH]cn1)NC(=O)[C@H](C)N)C(=O)N[C@H](C(=O)N[C@H](C(=O)N1CCC[C@H]1C(=O)N[C@@H](CCCNC(=N)N)C(=O)N[C@H](C(=O)N1CCC[C@H]1C(=O)O)[C@@H](C)O)[C@@H](C)O)C(C)C [Ala 1] | 6/6 | – | –
– | CC[C@H](C)[C@H](NC(=O)[C@H](CC(N)=O)NC(=O)[C@H](C)NC(=O)[C@H](Cc1ccccc1)NC(=O)[C@H](Cc1ccccc1)NC(=O)[C@H](Cc1c[nH]cn1)NC(=O)[C@@H](N)C(C)C)C(=O)N[C@H](C(=O)N[C@H](C(=O)N1CCC[C@H]1C(=O)N[C@@H](CCCNC(=N)N)C(=O)N[C@H](C(=O)N1CCC[C@H]1C(=O)O)[C@@H](C)O)[C@@H](C)O)C(C)C [Ala 5] | 0/6 | negative | Incidence of EAE (EAE; [5]): had a preventative effect on EAE; Incidence of EAE (EAE; native MBP peptide 0.2 mg mixed with competitor peptide 1 mg, listed as ala 5): 2/6; Incidence of EAE (EAE; [6]): 0/6; EAE (RAT) (EAE (RAT) [1]; listed as Ala5): incapable of causing EAE
> 200 | CC[C@H](C)[C@H](NC(=O)[C@H](C)NC(=O)[C@H](CCCCN)NC(=O)[C@H](Cc1ccccc1)NC(=O)[C@H](Cc1ccccc1)NC(=O)[C@H](Cc1c[nH]cn1)NC(=O)[C@@H](N)C(C)C)C(=O)N[C@H](C(=O)N[C@H](C(=O)N1CCC[C@H]1C(=O)N[C@@H](CCCNC(=N)N)C(=O)N[C@H](C(=O)N1CCC[C@H]1C(=O)O)[C@@H](C)O)[C@@H](C)O)C(C)C [Ala 6] | 0/21 | – | Incidence of EAE (EAE; [5]): completely prevented the clinical development of EAE; Incidence of EAE (EAE; native MBP peptide 0.2 mg mixed with competitor peptide 1 mg, listed as ala 6): 0/6; Incidence of EAE (EAE; [6]): 0/6; Comp Assay Prolif (RAT) (87-99 T-cell line [3]): plus; Comp Assay Prolif (RAT) (87-99 T-cell line [3]; listed as Ala6): can block proliferation; Prolif. (87-99 T-cell line [2]; key not given): weakly stimulate; binding to I-E / MHC (in words) (I-E): poor binders; also recorded: poor MHC binder; EAE (RAT) (EAE (RAT) [1]; listed as Ala6): incapable of causing EAE; EAE (RAT) (EAE (RAT) [4]): 0/6
> 200 | CC[C@H](C)[C@H](NC(=O)[C@H](CC(N)=O)NC(=O)[C@H](CCCCN)NC(=O)[C@H](C)NC(=O)[C@H](Cc1ccccc1)NC(=O)[C@H](Cc1c[nH]cn1)NC(=O)[C@@H](N)C(C)C)C(=O)N[C@H](C(=O)N[C@H](C(=O)N1CCC[C@H]1C(=O)N[C@@H](CCCNC(=N)N)C(=O)N[C@H](C(=O)N1CCC[C@H]1C(=O)O)[C@@H](C)O)[C@@H](C)O)C(C)C [Ala 4] | 0/6 | negative | Prolif. (87-99 T-cell line [2]; no key printed, listed as Ala4): does not stimulate; binding to I-E / MHC (in words) (I-E): poor binders; EAE (RAT) (EAE (RAT) [1]; listed as Ala4): incapable of causing EAE; also recorded: does not cause EAE
– | CC[C@H](C)[C@H](NC(=O)[C@H](CC(N)=O)NC(=O)[C@H](CCCCN)NC(=O)[C@H](Cc1ccccc1)NC(=O)[C@H](Cc1ccccc1)NC(=O)[C@H](Cc1c[nH]cn1)NC(=O)[C@@H](N)C(C)C)C(=O)N[C@H](C(=O)N[C@@H](C)C(=O)N1CCC[C@H]1C(=O)N[C@@H](CCCNC(=N)N)C(=O)N[C@H](C(=O)N1CCC[C@H]1C(=O)O)[C@@H](C)O)C(C)C [Ala 9] | 1/6 | negative | Prolif. (87-99 T-cell line [2]; no key printed, listed as Ala9): weak stimulators; EAE (RAT) (EAE (RAT) [1]; listed as Ala9): 1/6 and nonencephalitogenic
